Measurements: the NIST ThermoML archive (doi:10.1021/acs.jced.5b00562)

Conditions: for specific volume: Gas, isochoric method; for mass density: Liquid, Vibrating tube method

F/C=C(\F)C(F)(F)F [(Z)-1,2,3,3,3-pentafluoro-1-propene]
Conditions | mass density [kg/m3] | specific volume [m3/kg]
263.15 K, 135.2 kPa | – | 0.115
268.15 K, 138.3 kPa | – | 0.115
273.14 K, 141.3 kPa | – | 0.116
273.15 K, 202.4 kPa | – | 0.079
278.15 K, 144.3 kPa | – | 0.116
278.15 K, 207 kPa | – | 0.079
282.83 K, 301.1 kPa | – | 0.054
283.14 K, 12501 kPa | 1378.7 | –
283.15 K, 211.5 kPa | – | 0.079
283.15 K, 510 kPa | 1329.6 | –
283.15 K, 604 kPa | 1330.1 | –
283.15 K, 1003 kPa | 1332 | –
283.15 K, 1499 kPa | 1334.5 | –
283.15 K, 1997 kPa | 1336.8 | –
283.15 K, 2500 kPa | 1339.1 | –
283.15 K, 5000 kPa | 1350.2 | –
283.15 K, 7499 kPa | 1360.3 | –
283.15 K, 9998 kPa | 1369.8 | –
283.15 K, 15001 kPa | 1387 | –
283.15 K, 17501 kPa | 1395 | –
283.15 K, 20001 kPa | 1402.5 | –
283.15 K, 22497 kPa | 1409.9 | –
283.15 K, 25000 kPa | 1417 | –
283.16 K, 147.3 kPa | – | 0.116
283.16 K, 27503 kPa | 1423.9 | –
283.16 K, 29999 kPa | 1430.3 | –
283.16 K, 32498 kPa | 1436.2 | –
283.16 K, 35004 kPa | 1442.4 | –
287.91 K, 307.5 kPa | – | 0.054
288.15 K, 150.2 kPa | – | 0.116
288.15 K, 215.6 kPa | – | 0.079
292.78 K, 314.1 kPa | – | 0.054
293.15 K, 152.7 kPa | – | 0.116
293.15 K, 220 kPa | – | 0.079
293.15 K, 470 kPa | 1293.2 | –
293.15 K, 598 kPa | 1293.9 | –
293.15 K, 1000 kPa | 1296.2 | –
293.15 K, 1500 kPa | 1299.1 | –
293.15 K, 2000 kPa | 1301.9 | –
293.15 K, 2500 kPa | 1304.6 | –
293.15 K, 5000 kPa | 1317.4 | –
293.15 K, 7500 kPa | 1329 | –
293.15 K, 10001 kPa | 1339.8 | –
293.15 K, 12500 kPa | 1349.7 | –
293.15 K, 14999 kPa | 1359 | –
293.15 K, 17500 kPa | 1367.8 | –
293.15 K, 20000 kPa | 1376 | –
293.15 K, 22500 kPa | 1383.9 | –
293.15 K, 25000 kPa | 1391.4 | –
293.15 K, 27499 kPa | 1398.5 | –
293.15 K, 30000 kPa | 1405.4 | –
293.15 K, 32500 kPa | 1412 | –
293.15 K, 34999 kPa | 1418.5 | –
297.14 K, 418.9 kPa | – | 0.04
298.15 K, 155.7 kPa | – | 0.116
298.15 K, 224.3 kPa | – | 0.079
298.15 K, 498.5 kPa | – | 0.032
298.47 K, 320.7 kPa | – | 0.054
303.14 K, 327 kPa | – | 0.054
303.14 K, 510.2 kPa | – | 0.032
303.15 K, 158.7 kPa | – | 0.116
303.15 K, 228.2 kPa | – | 0.079
303.15 K, 430 kPa | – | 0.04
303.15 K, 700 kPa | 1255.3 | –
303.15 K, 1000 kPa | 1257.4 | –
303.15 K, 1500 kPa | 1260.9 | –
303.15 K, 2000 kPa | 1264.3 | –
303.15 K, 7500 kPa | 1296.6 | –
303.15 K, 9999 kPa | 1308.8 | –
303.15 K, 12500 kPa | 1320.1 | –
303.15 K, 20000 kPa | 1349.2 | –
303.15 K, 22501 kPa | 1357.8 | –
303.15 K, 24999 kPa | 1366 | –
303.15 K, 27500 kPa | 1374.4 | –
303.16 K, 2499 kPa | 1267.8 | –
303.16 K, 5000 kPa | 1283.2 | –
303.16 K, 14996 kPa | 1330.5 | –
303.16 K, 17500 kPa | 1340.2 | –
303.16 K, 30000 kPa | 1381.8 | –
303.16 K, 32500 kPa | 1388.8 | –
303.16 K, 35000 kPa | 1395.6 | –
308.12 K, 522.1 kPa | – | 0.032
308.14 K, 161.7 kPa | – | 0.116
308.14 K, 612.3 kPa | – | 0.027
308.15 K, 232.8 kPa | – | 0.079
308.15 K, 333.9 kPa | – | 0.054
308.15 K, 439 kPa | – | 0.04
312.86 K, 236.9 kPa | – | 0.079
313.13 K, 533.4 kPa | – | 0.032
313.14 K, 627 kPa | – | 0.027
313.14 K, 7500 kPa | 1262.1 | –
313.14 K, 10000 kPa | 1276.1 | –
313.15 K, 164.2 kPa | – | 0.116
313.15 K, 447.9 kPa | – | 0.04
313.15 K, 1000 kPa | 1216.2 | –
313.15 K, 1500 kPa | 1220.4 | –
313.15 K, 2008 kPa | 1224.6 | –
313.15 K, 5000 kPa | 1246.4 | –
313.15 K, 12501 kPa | 1288.9 | –
313.15 K, 15000 kPa | 1300.5 | –
313.15 K, 17497 kPa | 1311.3 | –
313.15 K, 20000 kPa | 1321.4 | –
313.15 K, 22500 kPa | 1330.8 | –
313.15 K, 25000 kPa | 1339.7 | –
313.15 K, 27500 kPa | 1348.1 | –
313.15 K, 30001 kPa | 1356.1 | –
313.15 K, 32500 kPa | 1363.7 | –
313.15 K, 35000 kPa | 1371 | –
313.16 K, 340.4 kPa | – | 0.054
313.16 K, 2501 kPa | 1228.3 | –
318.14 K, 346.9 kPa | – | 0.054
318.14 K, 641.3 kPa | – | 0.027
318.15 K, 166.8 kPa | – | 0.116
318.15 K, 241.3 kPa | – | 0.079
318.15 K, 457 kPa | – | 0.04
318.23 K, 544.9 kPa | – | 0.033
323.14 K, 353.4 kPa | – | 0.054
323.14 K, 555.9 kPa | – | 0.033
323.14 K, 655.2 kPa | – | 0.027
